# Assay results as given in US20130150399A1, “INHIBITORS OF THE UNFOLDED PROTEIN RESPONSE AND METHODS FOR THEIR USE” (The Board of Trustees of the Leland Stanford Junior …, priority 2006, published 2013).
# What was measured:
# [1] = target: T1, His6-IRE1α-cyto (Homo sapiens, UniProt O75460); assay: IRE1α endonuclease (in vitro ribonuclease) assay; format: biochemical; settings: 2.5 μM
# T1 construct: purified the full cytosolic portion of IRE1α (His6-IRE1α-cyto) containing both kinase and endonuclease domains; His6; made in house
# Description: The in vitro ribonuclease assays were carried out using purified IRE1α-cyto essentially as described. Gonzalez and Walter, Methods Mol Biol 160: 25-36 (2001); Gonzalez et al., Embo J 18: 3119-3132 (1999). For each reaction, 5 μg purified IRE1α-cyto was incubated with 300 ng of fluorescein-labeled RNA stem-loop substrate at 37° C. in a total volume of 300 μl. Aliquots (50 μl) were withdrawn at the indicated times and mixed with an equal volume of stop solution. Id. Reactions were analyzed by SDS-PAGE using 10-20% acrylamide gradient gels. The sequence for the hXBP-1 3′ RNA stem-loop substrate is as follows: • 5′[…] 3′ (SEQ ID NO: 8). […]
# HT1080 cells were exposed to DMSO vehicle (lane 1), irestatin 9389 (2.5 μM; lane 2) for 16 hours or Tm (5 μg/ml; lane 3) for 8 hours. Following treatments, cells were harvested, lysed, and analyzed by immunoblotting using anti-Grp78 antibody (top) or anti-actin (bottom) as a loading control. […] Cell lysates were analyzed by Western immunoblotting using anti-IRE1α (bottom) or anti-phospho-IRE1α antibodies (top). […] Lysates were analyzed by Western blot using antisera specific for phospho-JNK1 (top) or total JNK1 (bottom). […] F. Quantification of RNA cleavage kinetics. […] Samples were analyzed as in (E).
# Next we determined whether irestatin 9389 inhibited the endonuclease function of IRE1α. […]
# [2] = Blood chemistry, complete blood count and histopathology; format: in vivo, mice
# Description: Complete blood counts (CBC's) and clinical chemistry panels were performed on blood obtained by cardiac puncture after euthanasia with CO2 Gross necropsies were performed, all major viscera were harvested, fixed in 10% buffered neutral formalin, routinely processed for paraffin embedding, and stained with hematoxylin and eosin (H&E). Sections were analyzed by a board-certified veterinary pathologist (DMB). […]
# [3] = irestatin-treated nude mice, terminal cardiac blood draw, mean
# T1 sequence (O75460 465-977 limits assumed): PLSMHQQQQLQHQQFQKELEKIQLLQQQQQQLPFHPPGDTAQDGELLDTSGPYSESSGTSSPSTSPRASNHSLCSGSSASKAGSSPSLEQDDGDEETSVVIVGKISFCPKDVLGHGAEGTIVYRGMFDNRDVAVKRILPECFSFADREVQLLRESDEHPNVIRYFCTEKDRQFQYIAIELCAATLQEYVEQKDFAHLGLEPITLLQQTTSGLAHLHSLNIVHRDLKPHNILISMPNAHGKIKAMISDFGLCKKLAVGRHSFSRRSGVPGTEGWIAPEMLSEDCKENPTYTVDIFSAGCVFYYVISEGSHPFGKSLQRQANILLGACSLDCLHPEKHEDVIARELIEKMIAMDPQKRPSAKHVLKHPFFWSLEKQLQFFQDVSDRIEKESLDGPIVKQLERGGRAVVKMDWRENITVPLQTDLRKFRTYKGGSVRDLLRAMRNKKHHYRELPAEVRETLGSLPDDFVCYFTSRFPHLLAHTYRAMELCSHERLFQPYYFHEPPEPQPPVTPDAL
smiles,measurement,setting,value
Cc1csc(NC(=O)CSc2nc3c(c(C(F)(F)F)c2C#N)CCC3)n1 [Compound 9389],cleavage of XBP-1 target RNA by IRE1α endonuclease,[1],strongly inhibited cleavage
same,"tolerability (kidney, liver, bone marrow function)",[2]; 3-4 doses of 50 mg/kg every other day,well tolerated
same,fasting blood glucose levels versus vehicle,[2]; irestatin- and vehicle-treated animals,no significant difference in fasting blood glucose levels
same,ALT,[2]; [3],29.4 IU/L
same,AST,[2]; [3],117.775 IU/L
same,Anion Gap,[2]; [3],17.975 mM
same,Carbon Dioxide,[2]; [3],25.075 mM
same,Chloride,[2]; [3],116.75 mM
same,Cholesterol,[2]; [3],102 mg/dL
same,Glucose,[2]; [3],124.5 mg/dL
same,HCT,[2]; [3],47%
same,HGB,[2]; [3],14.625 gm/dL
same,Na/K Ratio,[2]; [3],20.3
same,Platelets,[2]; [3],805.5 K/uL
same,Potassium,[2]; [3],7.5175 mM
same,RBC,[2]; [3],10.375 M/uL
same,Sodium,[2]; [3],152.25 mM
same,Total Bilirubin,[2]; [3],0.3 mg/dL
same,WBC,[2]; [3],5.19 K/uL
same,histopathological analysis of all major organs,"[2]; three doses, 50 mg/kg",no significant differences between the vehicle and irestatin treatment groups
